Laboratory results: patent US20120135089A1, “E3 LIGASE INHIBITORS” (priority 2009, published 2012)

Legend:
[1] = target: T1, Mdm2(C464A)-luciferase fusion protein (Homo sapiens, UniProt Q00987, C464A); assay: counter screen in control Mdm2(C464A)-luciferase cell line; format: cell-based
T1 construct: Using full-length Mdm2 allowed for the presence of all domains of Mdm2; expressed in transfected cells
Experimental: The Mdm2-luciferase cell line was seeded at 7,500 cells per well, in 384-well white plates (PerkinElmer, Waltham, Mass., Cat. No. 6007688), in 27 μl of media (DMEM with FBS and P/S). Assay plates with cells were incubated at 37° C. overnight to allow cells to adhere. After 24 hours, 2 μl from the ‘mother’ plate (4 mg/ml) was transferred to a ‘daughter plate’ containing 148 μl media in order to dilute the compound 1:75. Next, 3 μl from each well of the ‘daughter plates’ was added to triplicate assay plates for a final concentration of 5.33 μg/ml. Assay plates were incubated at 37° C. for 2 hours. Then the cells were lysed with the addition of 30 μl of luminescence buffer (PerkinElmer, Cat. No. 6016989), and the plates were incubated at room temperature for 30 minutes before being analyzed on a Victor3 Plate Reader (PerkinElmer) for luminescence. Compounds that caused an increase in luminescence greater than 30% were re-ordered for further analysis. […] This was determined by comparing the negative control, no treatment, to the positive control, 10 μM MG132. […]
The above experiments verified that the cell lines could function as a valid system to screen for Mdm2 E3 ligase inhibitors. […] All compounds were incubated with the Mdm2-luciferase cell line for 2 hours, after which relative luminescence was detected by the addition of a luminesence buffer. […]

[2] = target: T2, Roc1/Cul1 E3 RING domain ligase (Homo sapiens, UniProt P62877+Q13616); assay: in vitro Roc1/Cul1 E3 ligase ubiquitination assay; format: biochemical
T2 construct: gift from Zhen-Qiang Pan, Mount Sinai School of Medicine
T2 sequence (P62877 whole entry, the tested form may be a part): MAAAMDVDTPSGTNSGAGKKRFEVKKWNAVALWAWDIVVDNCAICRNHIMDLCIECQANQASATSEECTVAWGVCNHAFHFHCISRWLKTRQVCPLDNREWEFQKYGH
T2 sequence (Q13616 whole entry, the tested form may be a part): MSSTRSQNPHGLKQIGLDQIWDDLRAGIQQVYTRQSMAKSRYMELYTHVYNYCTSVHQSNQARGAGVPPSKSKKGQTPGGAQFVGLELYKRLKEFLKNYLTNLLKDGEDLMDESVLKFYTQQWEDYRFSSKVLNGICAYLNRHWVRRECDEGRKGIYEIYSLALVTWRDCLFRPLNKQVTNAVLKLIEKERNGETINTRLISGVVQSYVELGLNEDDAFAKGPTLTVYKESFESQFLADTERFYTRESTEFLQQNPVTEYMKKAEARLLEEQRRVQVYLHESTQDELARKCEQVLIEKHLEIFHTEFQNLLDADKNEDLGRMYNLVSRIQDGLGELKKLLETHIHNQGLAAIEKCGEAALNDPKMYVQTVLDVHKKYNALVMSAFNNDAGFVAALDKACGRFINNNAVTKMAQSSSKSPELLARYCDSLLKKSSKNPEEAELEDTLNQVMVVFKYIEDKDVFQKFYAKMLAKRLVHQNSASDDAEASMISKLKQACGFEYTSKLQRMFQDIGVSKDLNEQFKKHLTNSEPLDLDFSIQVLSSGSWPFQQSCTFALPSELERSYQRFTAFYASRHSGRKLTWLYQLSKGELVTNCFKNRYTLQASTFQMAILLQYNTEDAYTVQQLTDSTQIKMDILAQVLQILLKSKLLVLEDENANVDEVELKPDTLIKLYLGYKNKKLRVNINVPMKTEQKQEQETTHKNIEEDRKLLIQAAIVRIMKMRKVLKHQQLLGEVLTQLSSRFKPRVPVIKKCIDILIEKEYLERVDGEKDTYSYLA
Experimental: These assays were performed with 100 ng of full-length Flag-Mdm2 or 200 ng of Flag-Mdm2/HA-MdmX complexes (100 ng of each protein as each are present in a 1:1 ratio, when purified), ^32P-labeled ubiquitin, UbCH5c, and E1. Following a 30-minute incubation at 37° C., reactions were terminated and resolved on a SDS-PAGE gel followed by autoradiography. PC indicates positive control, and NC indicates negative control with UbCH5C eliminated from the reaction. The gels were quantified by phosphoimaging using ImageQuant software (GE Healthcare Bio-Sciences Corp., Piscataway, N.J.). […] Reactions were performed as in FIG. 11A except 500 ng GST-Mdm2 (residues 400-491) and GST-MdmX (residues 400-490) were used for ubiquitin polymerization. […] Reactions were performed as in FIG. 11A except with 3 μg of the Roc1/Cul1 ligase complex. Ubiquitination activity of the complex was tested in the presence of increasing concentrations of MEL23 and MEL24.
Ubiquitination assays in the presence of increasing concentrations of MEL compounds were performed with 1.5 μg of the Roc1-Cul1 ligase complex, ^32P-labeled ubiquitin, UbCH5c, and E1. Following 30 min incubation at 37° C., reactions were terminated and resolved on a SDS-PAGE gel (FIG. 31A) followed by autoradiography and quantitation (FIG. 31B). […]

T1 sequence (Q00987 whole entry C464A, the tested form may be a part): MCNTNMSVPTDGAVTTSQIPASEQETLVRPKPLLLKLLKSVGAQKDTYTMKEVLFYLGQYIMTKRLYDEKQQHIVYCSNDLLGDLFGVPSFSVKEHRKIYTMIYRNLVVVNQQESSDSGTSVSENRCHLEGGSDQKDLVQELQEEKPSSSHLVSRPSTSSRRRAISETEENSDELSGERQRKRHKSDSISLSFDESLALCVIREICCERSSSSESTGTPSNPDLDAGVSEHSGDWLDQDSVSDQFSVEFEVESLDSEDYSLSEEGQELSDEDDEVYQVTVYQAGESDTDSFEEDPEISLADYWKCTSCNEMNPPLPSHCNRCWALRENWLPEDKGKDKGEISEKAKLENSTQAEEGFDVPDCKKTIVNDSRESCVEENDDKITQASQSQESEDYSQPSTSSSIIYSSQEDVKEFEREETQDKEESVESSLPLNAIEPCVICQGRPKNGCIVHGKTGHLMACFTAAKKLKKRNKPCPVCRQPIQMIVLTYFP

Row | SMILES | luminescence of the control Mdm2(C464A)-luciferase cell line [1] | Roc1/Cul1 E3 ligase activity in vitro [2]
1 | CCCCn1c(=O)[nH]c(O)c(C2NCCc3c2[nH]c2ccccc32)c1=O (stereo not shown) [MEL23] | did not significantly affect | no inhibition
2 | Cn1c(O)c(C2NCCc3c2[nH]c2ccccc32)c(=O)n(C)c1=O (stereo not shown) [MEL24] | did not significantly affect | no inhibition
